Measured values reported in ChEMBL document CHEMBL4680160, “A perspective review on fatty acid amide hydrolase (FAAH) inhibitors as potential therapeutic agents” (Eur J Med Chem, 2020).

What was measured:
[1] = target: T1, Fatty-acid amide hydrolase 1 (Rattus norvegicus, UniProt P97612); assay: Inhibition of rat FAAH using [3H]-AEA as substrate by liquid chromatography-mass spectrometry
T1 sequence (P97612 whole entry): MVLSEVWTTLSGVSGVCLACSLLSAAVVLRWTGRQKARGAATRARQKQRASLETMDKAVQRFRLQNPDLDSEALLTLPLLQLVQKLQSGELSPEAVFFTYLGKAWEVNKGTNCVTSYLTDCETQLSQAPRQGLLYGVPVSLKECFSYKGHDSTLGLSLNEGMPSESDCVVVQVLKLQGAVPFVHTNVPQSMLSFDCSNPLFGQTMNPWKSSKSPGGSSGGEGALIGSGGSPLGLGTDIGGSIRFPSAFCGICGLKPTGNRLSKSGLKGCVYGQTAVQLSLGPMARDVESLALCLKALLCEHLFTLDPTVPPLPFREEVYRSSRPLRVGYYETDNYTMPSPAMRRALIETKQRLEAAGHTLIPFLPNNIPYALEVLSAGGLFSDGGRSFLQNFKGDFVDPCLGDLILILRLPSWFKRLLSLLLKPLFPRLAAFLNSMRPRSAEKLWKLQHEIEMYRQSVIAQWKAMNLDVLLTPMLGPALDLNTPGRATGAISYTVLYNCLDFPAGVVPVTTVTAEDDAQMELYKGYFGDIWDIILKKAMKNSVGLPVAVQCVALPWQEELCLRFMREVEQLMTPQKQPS

[2] = target: T1, Fatty-acid amide hydrolase 1; assay: Inhibition of FAAH in rat brain homogenate using 2-arachidonoyl-[3H]-glycerol as substrate by scintillation counting method; format: tissue-based
[3] = In vivo inhibition of FAAH in NMRI mouse assessed as remaining enzymatic activity in liver at 30 mg/kg, po measured after 1 hr by AEA-substrate based scintillation counting method relative to control; format: functional
[4] = In vivo inhibition of FAAH in NMRI mouse assessed as remaining enzymatic activity in brain at 30 mg/kg, po measured after 1 hr by AEA-substrate based scintillation counting method relative to control; format: functional
[5] = target: T1, Fatty-acid amide hydrolase 1; assay: Inhibition of FAAH in Sprague-Dawley rat brain homogenate using arachidonoyl-ethanolamide and anandamide [ethanolamine-1-3H] as substrate pre-incubated for 10 mins followed by substrate addition and measured after 30 mins by liquid scintillation counting method; format: tissue-based
[6] = target: T2, Fatty-acid amide hydrolase 1 (Homo sapiens, UniProt O00519); assay: Inhibition of human FAAH expressed in HEK293 cells using AMC arachidonyl amide as substrate pre-incubated for 50 mins followed by substrate addition and measured after 30 mins by fluorescence method; format: cell-based
T2 sequence (O00519 whole entry): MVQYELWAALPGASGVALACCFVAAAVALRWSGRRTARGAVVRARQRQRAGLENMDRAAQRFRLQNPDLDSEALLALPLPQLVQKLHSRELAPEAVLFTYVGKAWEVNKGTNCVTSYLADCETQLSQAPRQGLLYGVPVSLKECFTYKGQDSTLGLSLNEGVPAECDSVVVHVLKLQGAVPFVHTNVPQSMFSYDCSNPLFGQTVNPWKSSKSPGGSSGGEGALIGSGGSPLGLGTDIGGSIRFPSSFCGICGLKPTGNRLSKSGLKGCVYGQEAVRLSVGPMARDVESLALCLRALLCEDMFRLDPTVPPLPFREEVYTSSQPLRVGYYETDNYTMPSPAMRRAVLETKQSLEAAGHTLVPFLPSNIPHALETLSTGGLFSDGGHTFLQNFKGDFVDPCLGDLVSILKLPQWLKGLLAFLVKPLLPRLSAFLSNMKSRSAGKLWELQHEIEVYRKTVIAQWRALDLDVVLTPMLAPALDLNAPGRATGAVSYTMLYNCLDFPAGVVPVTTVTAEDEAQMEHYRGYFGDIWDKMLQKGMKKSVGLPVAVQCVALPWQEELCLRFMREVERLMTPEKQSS

Rattus norvegicus = species on record: Rattus norvegicus; assay: Selectivity ratio of IC50 for rat NAAA using d4-PEA as substrate to IC50 for rat FAAH using [3H]-AEA as substrate
[7] = target: T1, Fatty-acid amide hydrolase 1; assay: Inhibition of rat FAAH expressed in HEK293 cells using AEA as substrate by HPLC-MS/MS analysis; format: cell-based
[8] = target: T3, Fatty-acid amide hydrolase 1 (Rattus norvegicus) (UniProt P97612); assay: Inhibition of FAAH in rat brain homogenate using [3H]AEA as substrate at 100 uM incubated for 10 mins by liquid scintillation spectroscopy relative to control; format: tissue-based
T3 sequence (whole entry): T1 sequence (P97612 whole entry)

[9] = target: T3, Fatty-acid amide hydrolase 1 (Rattus norvegicus); assay: Inhibition of FAAH in rat brain homogenate using AEA as substrate at 100 nM preincubated for 15 mins followed by substrate addition and measured after 10 mins by scintillation counting method relative to control; format: tissue-based; details: time 25.0 min
Cannabinoid receptor 2 = Cannabinoid receptor 2 (Homo sapiens, UniProt P34972); assay: Displacement of [3H]-CP55940 from recombinant human CB2 receptor expressed in CHO cells incubated for 90 mins by scintillation counting method; format: cell-based
[10] = target: T2, Fatty-acid amide hydrolase 1; assay: Inhibition of FAAH (unknown origin)
[11] = target: T2, Fatty-acid amide hydrolase 1; assay: Inhibition of human recombinant FAAH using (AMC) arachidonoyl amide as substrate preincubated for 5 mins followed by substrate addition and measured after 30 mins by fluorescence method
[12] = target: T1, Fatty-acid amide hydrolase 1; assay: Inhibition of FAAH in rat brain homogenate using [3H]AEA as substrate; format: tissue-based
[13] = target: T3, Fatty-acid amide hydrolase 1 (Rattus norvegicus); assay: Inhibition of rat FAAH expressed in HEK293 cells using AEA as substrate at 100 uM by liquid chromatography/mass spectroscopy relative to control; format: cell-based
[14] = Kinetic solubility of compound in PBS at pH 7.4; format: physicochemical; details: read-out: Kinetic_solubility
[15] = target: T4, Fatty-acid amide hydrolase 1 (Mus musculus, UniProt O08914); assay: Inhibition of FAAH in OF1 albino mouse brain homogenate assessed as reduction in [3H]ethanolamine production using [3H]anandamide as substrate; format: tissue-based
T4 sequence (O08914 whole entry): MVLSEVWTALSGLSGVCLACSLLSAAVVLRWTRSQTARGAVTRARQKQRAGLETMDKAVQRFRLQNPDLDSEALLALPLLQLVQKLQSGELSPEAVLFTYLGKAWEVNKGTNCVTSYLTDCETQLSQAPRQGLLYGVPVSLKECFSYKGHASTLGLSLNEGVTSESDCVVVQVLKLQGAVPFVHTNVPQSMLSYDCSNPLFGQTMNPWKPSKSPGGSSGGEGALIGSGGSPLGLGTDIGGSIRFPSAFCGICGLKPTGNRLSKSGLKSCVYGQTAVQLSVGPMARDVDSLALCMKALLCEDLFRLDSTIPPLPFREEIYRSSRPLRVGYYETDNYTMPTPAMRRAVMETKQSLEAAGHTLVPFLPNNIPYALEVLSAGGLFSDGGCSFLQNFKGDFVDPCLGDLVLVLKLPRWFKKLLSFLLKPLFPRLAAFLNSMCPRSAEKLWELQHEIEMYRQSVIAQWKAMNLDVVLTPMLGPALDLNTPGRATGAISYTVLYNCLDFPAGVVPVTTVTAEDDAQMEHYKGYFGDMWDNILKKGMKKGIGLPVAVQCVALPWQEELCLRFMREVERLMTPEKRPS

Chain of Cannabinoid receptor 2 (P34972 whole entry): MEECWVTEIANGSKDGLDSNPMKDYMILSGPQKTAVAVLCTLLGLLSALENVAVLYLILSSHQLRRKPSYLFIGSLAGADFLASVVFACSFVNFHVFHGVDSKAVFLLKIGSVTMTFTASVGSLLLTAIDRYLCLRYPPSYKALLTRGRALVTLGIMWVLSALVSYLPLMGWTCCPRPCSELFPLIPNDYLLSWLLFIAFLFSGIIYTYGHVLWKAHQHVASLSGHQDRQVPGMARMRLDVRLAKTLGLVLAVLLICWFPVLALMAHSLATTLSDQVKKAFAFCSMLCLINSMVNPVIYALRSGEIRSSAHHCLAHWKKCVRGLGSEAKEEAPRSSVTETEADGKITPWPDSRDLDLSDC

## CCCCCCNC(=O)n1cc(OC(C)=O)c(=O)[nH]c1=O
[1]
  IC50: 25 nM

## O=C(N1CCN(Cc2nc3ccccc3n3cccc23)CC1)n1nnc2ccccc21
[2]
  IC50: 23.6 nM

## O=C(N1CCN(Cc2nc3cc(F)ccc3n3cccc23)CC1)n1nnc2ccccc21
[2]
  IC50: 23.2 nM

## Cl.Cl.O=c1oc(Oc2ccc(F)cc2F)nn1-c1ccc(OCCN2CCNCC2)cc1
[3]
  Activity: 5%
[4]
  Activity: 74%

## Cl.O=c1oc(Oc2ccc(F)cc2F)nn1-c1ccc(OCCN2CCCCC2)cc1
[3]
  Activity: 10%
[4]
  Activity: 20%

## O=C(NCCCCN1CCN(c2cccc(Cl)c2Cl)CC1)Oc1ccc2ccccc2c1
[5]
  IC50: 13 nM
[6]
  IC50: 2.7 nM

## CC(=O)Oc1cn(C(=O)NCCCCCCCc2ccccc2)c(=O)[nH]c1=O
Rattus norvegicus
  Ratio IC50: 3130
[1]
  IC50: 3 nM

## O=C(NCCCc1ccccc1)n1cc(C(F)(F)F)c(=O)[nH]c1=O
[7]
  IC50: 21 nM

## COc1cccc(N2CCN(C(=O)C(C)c3ccc(CC(C)C)cc3)CC2)c1 (stereo not drawn)
[8]
  inhibition: 41%

## O=c1oc(Oc2ccc(F)cc2F)nn1-c1ccc(O)cc1
[3]
  Activity: 12%
[4]
  Activity: 86%

## CC(C)Cc1ccc(C(C)C(=O)NCc2c(Cl)cccc2Cl)cc1 (stereo not drawn)
[8]
  inhibition: 19%

## CN(C(=O)n1cnc(-c2ccc[n+]([O-])c2)c1)C1CCCCC1
[9]
  inhibition: 85%

## CC(=O)Oc1cn(C(=O)NCCCCc2ccc(-c3ccccc3)cc2)c(=O)[nH]c1=O
Rattus norvegicus
  Ratio IC50: > 10000
[1]
  IC50: 0.8 nM

## CCCCCOc1ccc(-c2cc(C(=O)NC34CC5CC(CC(C5)C3)C4)no2)cc1
Cannabinoid receptor 2
  IC50: > 1000 nM

## Cc1ccc2c(nc(CNC3CCN(C(=O)n4nnc5ccccc54)CC3)c3cccn32)c1C
[2]
  IC50: 25.1 nM

## Cl.Cl.O=c1oc(Oc2ccc(F)cc2F)nn1-c1ccc(OCCCN2CCNCC2)cc1
[3]
  Activity: 8%
[4]
  Activity: 85%

## CCCCCOc1ccccc1-c1cc(C(=O)NC23CC4CC(CC(C4)C2)C3)no1
[10]
  IC50: > 10000 nM

## O=C1/C(=N/c2nc3ccccc3[nH]2)c2ccccc2N1C(=O)c1ccc(Cl)cc1Cl
[11]
  IC50: 1490 nM

## O=C(N1CCN(Cc2nc3ccccc3n3cccc23)CC1)n1cncn1
[2]
  IC50: 37 nM

## O=c1oc(Oc2ccc(F)cc2F)nn1-c1cccc(O)c1
[3]
  Activity: 12%
[4]
  Activity: 94%

## CCCCCCNC(=O)n1cc(C#N)c(=O)[nH]c1=O
[1]
  IC50: 25 nM

## O=C(N1CCN(Cc2nc3cc(F)ccc3n3cccc23)CC1)n1cncn1
[2]
  IC50: 20.7 nM

## CCC/C=C/COCC(=O)Nc1cccc(-c2nc3cccnc3[nH]2)c1
[12]
  IC50: 73000 nM

## Cc1ccc2c(nc(CN3CCN(C(=O)n4cncn4)CC3)c3cccn32)c1C
[2]
  IC50: 32.4 nM

## CCCCCCNC(=O)n1ccc(=O)[nH]c1=O
Rattus norvegicus
  Ratio IC50: 2
[1]
  IC50: 492 nM

## O=C(COc1ccc(-c2ccccc2)cc1)Nc1cccc(-c2nc3ncccc3o2)c1
[12]
  IC50: 630 nM

## O=C(N1CCC(NCc2nc3cc(F)ccc3n3cccc23)CC1)n1nnc2ccccc21
[2]
  IC50: 9.6 nM

## O=C(NCCc1ccc(-c2ccccc2)cc1)n1ccc(=O)[nH]c1=O
[7]
  IC50: 53 nM

## CCCCCCCC/C=C\CCCCCCCC(=O)NO
[13]
  inhibition: 98.3%

## O=C(NCCCCN1CCN(c2cccc(Cl)c2Cl)CC1)Oc1cccc2ccccc12
[5]
  IC50: 22 nM
[14]
  solubility kinetic: < 1 µM
[6]
  IC50: 6.1 nM

## O=C(COc1ccc(C2CCCCC2)cc1)Nc1ccc(-c2nc3ncccc3[nH]2)cc1
[12]
  IC50: 1500 nM

## Cc1ccc2c(nc(CN3CCN(C(=O)n4nnc5ccccc54)CC3)c3cccn32)c1C
[2]
  IC50: 27.3 nM

## O=C(N1CCN(Cc2nc3cc(Cl)ccc3n3cccc23)CC1)n1nnc2ccccc21
[2]
  IC50: 35.8 nM

## Cc1ccccc1N1CCN(C(=O)C(C)c2ccc(CC(C)C)cc2)CC1 (stereo not drawn)
[8]
  inhibition: 33%

## COc1ccc2c(cccc2[C@H]2CO[C@H](CCCNC(=O)OCC(N)=O)OC2)c1
[15]
  IC50: 62.5 nM

## NC(=O)c1cccc(-c2cccc(OC(=O)NCCCN3CCN(c4cccc(Cl)c4Cl)CC3)c2)c1
[5]
  IC50: 0.1 nM

## O=C(COc1ccc(C2CCCCC2)cc1)Nc1ccccc1-c1nc2ncccc2[nH]1
[12]
  IC50: 650 nM

## NC(=O)c1ccc(-c2ccc(OC(=O)NCCCCN3CCN(c4cccc(Cl)c4Cl)CC3)cc2)cc1
[5]
  IC50: 0.7 nM
[6]
  IC50: 0.6 nM

## Cl.O=c1oc(Oc2ccc(F)cc2F)nn1-c1ccc(OCCN2CCCC2)cc1
[3]
  Activity: 9%
[4]
  Activity: 10%

## CC(=O)Oc1cn(C(=O)NCCCc2ccc(-c3ccccc3)cc2)c(=O)[nH]c1=O
Rattus norvegicus
  Ratio IC50: > 10000
[1]
  IC50: 0.3 nM

## O=C(N1CCN(Cc2nc3cc(Cl)ccc3n3cccc23)CC1)n1cncn1
[2]
  IC50: 25.1 nM

## CCCCCCNC(=O)n1cc(F)c(=O)[nH]c1=O [CARMOFUR]
[1]
  IC50: 25 nM

## O=C(COc1ccc(-c2ccccc2)cc1)Nc1ccccc1-c1nc2ncccc2[nH]1
[12]
  IC50: 1100 nM

## CCCC/C=C/COCC(=O)Nc1ccc(-c2nc3ncccc3[nH]2)cc1
[12]
  IC50: 64000 nM
